These are literature values, as cited in patent publication US20230111756A1, “STABLE FORMULATIONS OF PLANTS EXTRACTS AND METHODS OF MAKING THE SAME” (Nulixir Inc., priority 2021, published 2023).

The conditions of the data set: reference solvents n-octanol and water; categorization at pH=7 unless stated otherwise.

What is called log P is a log measure of how a compound divides between an organic and an aqueous phase. Regarding `N#C[C@@]1(O[C@@H]2O[C@H](CO)[C@@H](O)[C@H](O)[C@H]2O)C=C[C@@H](O)C1` [tetraphyllin B], the “log P” value is listed as approximately −2.5. `COC1=CC(=O)OC(/C=C/c2ccc(OC)cc2)C1` (stereo not shown) [5,6-dihydroyangonin]: the lipophilicity (log P) is approximately 2.5.

Consider (R)-kawain, for which the “log P” value is given as approximately 2.7. As for tortuosomine, the “log P” value was 3. As for `COc1ccc(CCc2cc(OC)cc(=O)o2)cc1` [7,8-dihydroyangonin], the “log P” value is reported as approximately 2.9. As for `COc1cc(/C=C\c2ccc(OC)c(O)c2)oc(=O)c1` [11-hydroxyyangonin], the “log P” value is on record as approximately 2.2.

As to `COc1cc(/C=C/c2ccccc2)oc(=O)c1` [5,6-dehydrokawain], the “log P” value is on record as approximately 2.9. With `CC1=C(CO)C(=O)O[C@@H]([C@@H](C)[C@H]2CC[C@H]3[C@@H]4C[C@H](Cl)[C@]5(O)[C@@H](O)C=CC(=O)[C@]5(C)[C@H]4CC[C@]23C)C1` [6a-chloro-5b-hydroxywithaferin A], the “log P” value is on record as approximately 3.2. On to `COc1c2c(cc3c1-c1c(cc4c(c1OC)OCO4)C[C@H](C)[C@H](C)C3)OCO2` [(−)-schisandrin C], for which the lipophilicity (log P) is on record as approximately 3.5. On to bacopaside B, for which the lipophilicity (log P) is approximately 2.8. Consider `COC1=CC(=O)O[C@@H](CCc2ccc3c(c2)OCO3)C1` [7,8-dihydromethysticin], for which the “log P” value was approximately 2.2.

Turning to `COc1ccc([C@@]23CCC(=O)C[C@@H]2N(C)CC3)cc1OC` [mesembrine], the “log P” value is 1.5. For `COc1cc2c(c(OC)c1OC)-c1c(cc3c(c1OC)OCO3)CC(C)C(C)C2` (single isomer, unassigned; (-)) [(−)-schisandrin B], the log partition coefficient (log P) is recorded as approximately 4. Take `COc1cc2c(c(OC)c1OC)-c1c(cc(OC)c(OC)c1OC)C[C@H](C)[C@H](C)C2` [(−)-schisandrin A]: the lipophilicity (log P) is recorded as approximately 3.6. As for `COc1cc([C@H]2Oc3cc(O)c4c(=O)c(O)c(-c5ccc(O)cc5)oc4c3O[C@@H]2CO)ccc1O` [rhodiolin], the “log P” value is given as approximately 2. Regarding hericerin, the “log P” value is approximately 6.4.

In the case of `COc1nc2c(c(=O)n1C)n(C)c(=O)n2C` [methylliberine], the lipophilicity (log P) is reported as approximately −0.083.

`COc1cc2c(c(OC)c1OC)-c1c(cc(OC)c(OC)c1OC)C[C@](C)(O)[C@@H](C)C2` [schisandrol A]: the “log P” value is on record as approximately 3.4. On to herinacine A, for which the “log P” value is approximately 2.5. Take `CC(=O)OC1C=CC(=O)N(C(=O)CCc2ccccc2)C1` (stereo not shown) [pipermethystine]: the “log P” value is listed as approximately 1.8.

Turning to `COc1cc2c(c(OC)c1OC)-c1c(cc(OC)c(OC)c1OC)C[C@](C)(O)[C@@H](C)C2` [(+)-schisandrin], the “log P” value is on record as approximately 5. schisandroside C: the “log P” value was approximately 1.6.
